We go through 1 compound from publication PMC12668308, “A Novel Antimalarial Agent that Inhibits Protein Synthesis in Plasmodium falciparum” (Angewandte Chemie (International Ed. in English), 2025).

The nature of one data set: Cytotoxicity assay (MTT). As to conditions: human, HepG2 cells; HepG2, 48 h, MTT; mean ± s.d. The format is cell-based, human. Here is the method:
(§1) HepG2 (2x10^4 cells per well) were seeded in 96-well flat-bottom culture plates in 100 µL of culture medium (DMEM containing 10% fetal calve serum and 1% penicillin-streptomycin). After 24 hours, the medium was replaced by fresh medium containing test compounds in a final DMSO concentration of 1%. […] Epirubicin and doxorubicin were used as positive controls in serial dilutions starting from 10 µM, and rifampicin was used as a negative control (at 100 µM). Cell viability was determined 48 h after treatment with compounds by adding 0.1 volumes of 3-(4,5-dimethylthiazol-2-yl)-2,5-diphenyltetrazolium bromide (MTT) solution (5 mg/mL sterile PBS) (Sigma, St. Louis, MO) to the wells. After incubating the cells for 30 min at 37 °C (atmosphere containing 5% CO2), medium was removed and MTT crystals were dissolved in 75 µL of a solution containing 10% SDS and 0.5% acetic acid in DMSO. The optical density (OD) of the samples was measured photometrically at 570 nm in a PHERAstar Omega plate reader (BMG labtech, Ortenberg, Germany). Percent viability was calculated by normalizing sample ODs to those of the DMSO controls. Each compound was tested in at least two independent experiments and CC50 values were determined using the nonlinear regression function of GraphPad Prism 10 (GraphPad Software, San Diego, CA, USA).

A further data set relates to HepG2. Put plainly: Cytotoxicity assay (MTT). The format is cell-based, human. As to the method: as §1
Data set [1] concerns 60S ribosomal protein L7 (W7KAU4). Put plainly: iSPP profiling, P. falciparum lysate. Format: binding, Plasmodium falciparum.
Data set [2] deals with Dd2 NITD609 (Dd2 + pfatp4). Put plainly: [3H]-hypoxanthine incorporation assay. The format is cell-based, Plasmodium falciparum. Here is the method:
(§2) ^[a]72-h [^3H] hypoxanthhine incorporation assay. Data is expressed as mean±s.d..
(§3) P. falciparum asexual blood stage parasites were cultured in human red blood cells (RBC, Blutspende SRK, Zurich) at a hematocrit of 5% in RPMI 1640 medium. The RPMI 1640 medium (ThermoFisher Scientific #51800−043) was supplemented with the following: 24 mM NaHCO3 (pH 7.3, Sigma-Aldrich #31437−500G-R), 25 mM Hepes (Sigma-Aldrich #H4034−500G), 0.36 mM hypoxanthine (Sigma-Aldrich # H9377−25G), 100 µg mL^-1 neomycin (Sigma-Aldrich #N6386−100G) and 0.5% Albumax II (Thermo Fisher #11021−045). Additionally, 2 mM choline chloride (279 mg/L, Sigma-Aldrich #C7527−100G) was added to the culture to block the induction of sexual commitment as described. ^[31^] The RPMI 1640 medium and components were dissolved in water (Milli-Q purified), stirred for at least 3 h, and then sterile filtered (0.22 μm pore size) with a bottle top filter (Corning # 431118). Parasite cultures were maintained in an atmosphere of 3% O2, 4% CO2, and 93% N2 in air-tight chambers at 37 °C. The [^3H]-hypoxanthine incorporation assay was used to test compound activity in the specific parasite lines as described.^[32^] Briefly, compounds were dissolved in DMSO (10 mM) and diluted in a hypoxanthine-free culture medium. A limiting dilution was performed over a 64-fold range (6-step twofold dilution) in a 96-well plate in duplicates. For every starting concentration, a limiting dilution was performed over a 64-fold range (6-step twofold dilution) in a 96-well plate in two biological duplicates. Parasites were added at 100 µL to each well containing the compound to obtain a final parasitemia of 0.3% and haematocrit of 1.25%. The plates were incubated for 48 h before 0.25 µCi of [^3H]-hypoxanthine was added per well for an additional 24 h. Parasites were harvested on a glass-fiber filter with a Microbeta FilterMate cell harvester (Perkin Elmer, Waltham, USA) and radioactivity was counted using a MicroBeta2 liquid scintillation counter (Perkin Elmer, Waltham, US). The results were recorded, processed by subtraction of the mean background signal obtained from the uninfected RBC controls and expressed as percentage of untreated controls. The fifty percent inhibitory concentration (IC50) was calculated by using nonlinear, four parameter (variable slope) curve fitting as described ^[33^] after importing into GraphPad Prism (version 8.3.0).

The subject of data set [3] is Dd2 MMV390048 (Dd2 + pfpI4k). The data set can be described thus: [3H]-hypoxanthine incorporation assay. The format is cell-based, Plasmodium falciparum. As to the method: as §2, §3
In data set [4] the test system is Dd2 DDD107458 (Dd2 + pfeEF2). Put plainly: [3H]-hypoxanthine incorporation assay. Format: cell-based, Plasmodium falciparum. As to the method:
as §2, §3

The subject of data set [5] is Dd2 Fosmidomycin (Dd2 + pfdxr). Put plainly: [3H]-hypoxanthine incorporation assay. The format is cell-based, Plasmodium falciparum. Here is the method: as §2, §3
In data set [6] the test system is Dd2 DSM265 (Dd2 + pfdhodh). Put plainly: [3H]-hypoxanthine incorporation assay. The format is cell-based, Plasmodium falciparum. Here is the method:
as §2, §3

[7] abbreviates: Plasmodium falciparum, DD2, 72 h.

As a reminder, the CC50 is the concentration at which the toxic effect on the cells reaches its halfway point. The term inhibition denotes the share of the control response that was lost under treatment. What is called IC50 is the concentration that inhibits the measured activity by half. Regarding `CN1CCN(Cc2ccc(O)c(NC(=O)c3cccc(Oc4cc(C(F)(F)F)ccn4)c3)c2)CC1` [Compound 31, N-(2-hydroxy-5-((4-methylpiperazin-1-yl)methyl)phenyl)-3-((4-(trifluoromethyl)pyridin-2-yl)oxy)benzamide], it took 37000 nM to reach half-maximal cytotoxicity in the data set “Cytotoxicity assay (MTT)” (CC50 at 48 h). Moreover, the “selectivity index (CC50/IC50)” value in the data set on HepG2 (HepG2 CC50 / P. falciparum IC50) is 9,487. Besides, in the data set on HepG2 (Homo sapiens, HepG2, 100 µM, 48 h, MTT), at 100 µM the inhibition was 87 ± 5%. Moreover, the log2FC in data set [1] (10 µM) is on record as 0.75; in data set [1] (50 µM) it was 0.94; in data set [1] (100 µM), 0.74; in data set [1] (10^-2 µM), 0.69; in data set [1] (10^-3 µM), 0.33. For the same compound, the “IC50 fold shift relative to Dd2 strain” value came out at 0.7 in data set [2] (Dd2 NITD609); 0.5 in data set [3] (Dd2 MMV390048); 0.6 in data set [4] (Dd2 DDD107458); 0.3 in data set [5] (Dd2 Fosmidomycin); 0.3 in data set [6] (Dd2 DSM265). For the same compound, the IC50 in data set [2] (setting [7]) was 6.2 ± 2.5 nM; in data set [3] (setting [7]), 4.8 ± 1.5 nM; in data set [4] (setting [7]), 5.6 ± 0.9 nM; in data set [5] (setting [7]), 2.4 ± 0.6 nM; in data set [6] (Plasmodium falciparum, 72 h), 2.8 ± 0.5 nM.
